According to US8501483B2, “Method of assessing cancer status in a breast cancer patient” (University College Dublin, National University of Ireland, …, priority 2008, dated 2013):

Experiments:
[1] = test system: interactions between SRC-1 and HOX-C11; assay: Immunoprecipitation of SRC-1 and subsequent immunoblot for HOX-C11 in endocrine resistant LY2 cells; assay type: cell-based; conditions: endocrine resistant breast cancer LY2 cells, 10^−8 M, FIG. 1
Description: FIG. 1: Confirmation of differential interactions between SRC-1 and HOX-C11 in endocrine resistant breast cancer LY2 cells in the presence of tamoxifen (4-OHT) and faslodex (ICI) (10^−8 M) was performed by immunoprecipitation of SRC-1 and subsequent immunoblot for HOX-C11.
(§1) Increased interactions between HOX-C11 and SRC-1 were found in endocrine resistant versus endocrine sensitive breast cancer. Furthermore these interactions were enhanced in the presence of endocrine modulators, tamoxifen and faslodex (FIG. 1). In primary breast cancer tissue HOX-C11 and SRC-1 were co-localised to the nucleus and perinuclear region of the tumour epithelial cells (FIG. 2). A greater interaction occurred in tamoxifen-resistant LY2 cells, compared with the parent MCF-7 sensitive cell line. HOX genes play a central role in ductal formation and lobulo-aleolar development by regulating epithelial proliferation and differentiation in the developing breast and have been implicated in steroid/growth-factor pathway crosstalk. […] S100β has been identified as a possible target gene of the HOX-C11 transcription factor. Several HOX responsive elements have been identified in the promoter of S100β and forced expression of HOX-C11 in neuronal cells induces expression of S100β. […]

HOX-C11 = assay: Immunocytochemistry of HOX-C11 in tamoxifen-resistant cells; assay type: cell-based
From the text: as §1, with “S100β. This family of calcium binding protein is secreted and has previously been associated with poor outcome and reduced disease-free survival in melanoma. Experimental data provides evidence for a functional interaction between SRC-1 and HOX-C11. Knockdown of SRC-1 using siRNA abrogated the HOX-C11 associated induction of S100β (FIG. 4B).” for “S100β.”

Row | Compound | interactions between HOX-C11 and SRC-1 [1] | HOX-C11 localisation when cells were treated (HOX-C11)
1 | C[C@]12CC[C@@H]3c4ccc(O)cc4C[C@@H](CCCCCCCCC[S+]([O-])CCCC(F)(F)C(F)(F)F)[C@H]3[C@@H]1CC[C@@H]2O (stereo partly shown) [faslodex] | enhanced | translocate to the nucleus and peri-nuclear region
2 | CC/C(=C(\c1ccccc1)c1ccc(OCCN(C)C)cc1)c1ccccc1 [tamoxifen] | enhanced | translocate to the nucleus and peri-nuclear region
